Legend:
CKL13 (AT1G04440) = target: T1, CKL13 (AT1G04440) (Arabidopsis thaliana, UniProt Q5XF24); test: AMI‐329 bead binding with AMI‐331 competitor, CKL13
T1 construct: from tissue; host or cells: Arabidopsis seedlings, two weeks old
Procedure: (§1) Screening for proteins bound to AMI‐329 beads was done by a method similar to what has previously been described (Uehara et al., 2019). Briefly, two‐week‐old seedlings grown under LD conditions were harvested at time points ZT2, ZT6, ZT9, and ZT17, and stored at −80°C. Proteins from the frozen plant samples were incubated with 0, 5, or 50 µM of AMI‐331 at 4°C for 30 min with rotary mixing. Two technical replicates were used for each experiment. PBS‐washed AMI‐329 beads were added to the protein samples and gently rotated at 4°C for 1 hr. AMI‐329 bead resins were washed with bead buffer (Uehara et al., 2019) six times. The washed resins were suspended in SDS sample buffer and boiled for 8 min. Protein samples were in‐gel‐digested as previously described (Uehara et al., 2019). Peptides were analyzed with a Q Exactive hybrid quadrupole‐orbitrap mass spectrometer (Thermo Fisher Scientific), as described previously (Uehara et al., 2019). […]
(§2) However, another possible mechanism for the strong AMI‐331 biological activity in vivo is that it targets proteins other than the CK1 family for period lengthening. […] It is noteworthy that kinase AT4G08800 is very similar to the CKL family, but the ATP‐binding pocket of mammalian CK1 as determined by its crystal structure (Shinohara et al., 2017) was absent from AT4G08800, as shown in an Araport 11 model (https://www.araport.org). […]

Kinase AT4G34500 = target: T2, Kinase AT4G34500 (Arabidopsis thaliana, UniProt Q6NKZ9); test: AMI‐329 bead binding with AMI‐331 competitor, kinase AT4G34500
T2 construct: from tissue; host or cells: Arabidopsis seedlings, two weeks old
T2 sequence (Q6NKZ9 whole entry): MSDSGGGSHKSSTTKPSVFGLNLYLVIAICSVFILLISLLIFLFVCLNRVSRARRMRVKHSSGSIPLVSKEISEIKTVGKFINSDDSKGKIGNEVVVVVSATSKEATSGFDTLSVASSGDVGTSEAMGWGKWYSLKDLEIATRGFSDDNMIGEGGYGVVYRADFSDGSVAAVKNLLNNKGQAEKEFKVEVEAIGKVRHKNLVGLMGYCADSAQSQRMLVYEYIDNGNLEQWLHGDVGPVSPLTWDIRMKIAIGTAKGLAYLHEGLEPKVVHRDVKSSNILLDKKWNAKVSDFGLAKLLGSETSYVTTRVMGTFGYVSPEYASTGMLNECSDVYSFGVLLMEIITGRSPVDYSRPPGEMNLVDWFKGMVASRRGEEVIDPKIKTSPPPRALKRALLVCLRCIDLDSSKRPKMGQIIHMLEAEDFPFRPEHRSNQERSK
Procedure: as §1, §2

MPK family = test: AMI‐329 bead binding with AMI‐331 competitor, MPK family; set-up: species or system Arabidopsis thaliana
Procedure: (§3) Screening for proteins bound to AMI‐329 beads was done by a method similar to what has previously been described (Uehara et al., 2019). Briefly, two‐week‐old seedlings grown under LD conditions were harvested at time points ZT2, ZT6, ZT9, and ZT17, and stored at −80°C. Proteins from the frozen plant samples were incubated with 0, 5, or 50 µM of AMI‐331 at 4°C for 30 min with rotary mixing. Two technical replicates were used for each experiment. PBS‐washed AMI‐329 beads were added to the protein samples and gently rotated at 4°C for 1 hr. AMI‐329 bead resins were washed with bead buffer (Uehara et al., 2019) six times. The washed resins were suspended in SDS sample buffer and boiled for 8 min. Protein samples were in‐gel‐digested as previously described (Uehara et al., 2019). Peptides were analyzed with a Q Exactive hybrid quadrupole‐orbitrap mass spectrometer (Thermo Fisher Scientific), as described previously (Uehara et al., 2019). MS/MS spectra were interpreted, and peak lists were generated using Proteome Discoverer 2.0.0.802 (Thermo Fisher Scientific). Searches were performed using SEQUEST (Thermo Fisher Scientific) against the Arabidopsis thaliana (TAIR TaxID = 3,702) peptide sequence database. […]
(§4) To examine other potential targets of AMI‐331, we analyzed the spectra for PHA767491 target proteins (Uehara et al., 2019). […]

CKL11 (AT4G14340) = target: T3, CKL11 (AT4G14340) (Arabidopsis thaliana, UniProt Q39050); test: AMI‐329 bead binding with AMI‐331 competitor, CKL11
T3 construct: from tissue; host or cells: Arabidopsis seedlings, two weeks old
T3 sequence (Q39050 whole entry): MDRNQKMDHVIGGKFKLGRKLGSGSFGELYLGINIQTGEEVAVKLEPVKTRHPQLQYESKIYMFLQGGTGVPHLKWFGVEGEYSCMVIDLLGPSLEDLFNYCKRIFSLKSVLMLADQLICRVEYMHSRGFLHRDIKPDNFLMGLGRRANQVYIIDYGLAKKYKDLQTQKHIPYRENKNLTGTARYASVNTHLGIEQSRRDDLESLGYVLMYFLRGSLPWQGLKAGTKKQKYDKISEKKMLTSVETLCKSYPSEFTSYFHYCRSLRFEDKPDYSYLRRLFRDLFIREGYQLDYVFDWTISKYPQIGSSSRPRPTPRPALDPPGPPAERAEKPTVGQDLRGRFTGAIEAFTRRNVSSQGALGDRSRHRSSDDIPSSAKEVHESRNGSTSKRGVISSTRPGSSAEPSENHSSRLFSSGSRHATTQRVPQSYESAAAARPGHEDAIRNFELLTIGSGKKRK
Procedure: as §1, §2

CPK family = test: AMI‐329 bead binding with AMI‐331 competitor, CPK family; set-up: species or system Arabidopsis thaliana
Procedure: as §3, §4

CKL2 (AT1G72710) = target: T4, CKL2 (AT1G72710) (Arabidopsis thaliana, UniProt Q9CAI5); test: AMI‐329 bead binding with AMI‐331 competitor, CKL2
T4 construct: from tissue; host or cells: Arabidopsis seedlings, two weeks old
T4 sequence (Q9CAI5 whole entry): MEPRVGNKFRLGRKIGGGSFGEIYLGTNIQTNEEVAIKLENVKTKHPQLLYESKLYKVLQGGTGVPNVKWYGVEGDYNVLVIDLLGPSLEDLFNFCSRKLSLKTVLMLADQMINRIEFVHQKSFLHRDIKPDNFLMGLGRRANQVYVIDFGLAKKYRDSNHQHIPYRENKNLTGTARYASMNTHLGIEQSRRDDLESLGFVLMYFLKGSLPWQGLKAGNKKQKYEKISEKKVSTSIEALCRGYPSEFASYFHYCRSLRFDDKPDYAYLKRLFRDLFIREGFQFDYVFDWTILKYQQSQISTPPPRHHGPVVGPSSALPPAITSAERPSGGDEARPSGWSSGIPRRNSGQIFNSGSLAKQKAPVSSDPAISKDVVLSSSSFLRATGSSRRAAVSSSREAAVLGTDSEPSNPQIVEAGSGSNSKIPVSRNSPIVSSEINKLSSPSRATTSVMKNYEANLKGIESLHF
Procedure: as §1, §2

[1] = test system: all members of the CK1 family and an additional ten non‐CK1 proteins; test: AMI‐329 bead binding with AMI‐331 competitor, the 23 AMI‐331‐bound proteins; set-up: species or system Arabidopsis thaliana
Procedure: as §1, §2

PRR7 = test: RT-qPCR of the CK1 downstream gene PRR7; format: in vivo, Arabidopsis; conditions: 6 hr
Procedure: Arabidopsis Col‐0 seedlings that had been grown under constant light conditions for […] were immersed in 10 or 50 µM of the GSK‐3, SHAGGY‐related, and BIN2 kinase inhibitor Bikinin (SML0094, Sigma) (De Rybel et al., 2009), […], or DMSO as control for 6 hr. Three biological replicates were used for each assay. Harvested seedlings were frozen in liquid nitrogen and crushed with zirconia beads in a Tissue Lyser II, and RNA was isolated with Illustra RNAspin (25‐0500‐72, GE Healthcare). RT‐qPCR was performed as described previously (Nakamichi et al., 2010) using an Eco Real‐Time PCR System (Illumina). Gene expression was normalized against IPP2, and maximal values were set to 1. Primers for detecting IPP2, PRR7, GR60ox2, and CPD were described previously (De Rybel et al., 2009; Kamioka et al., 2016).
Because the ATSK family was identified by the molecular probe assay as potential targets of AMI‐331, even though the affinities between AMI‐331 and ATSKs were not as high as between AMI‐331 and CK1, we used the ATSK inhibitor Bikinin to determine if AMI‐331 treatment affects the expression of genes downstream of ATSKs (De Rybel et al., 2009). Four‐day‐old Arabidopsis seedlings grown under constant light conditions were treated with Bikinin or AMI‐331 for 6 hr, and mRNA extracted from seedlings samples was analyzed by RT‐qPCR.

T1 sequence (Q5XF24 whole entry): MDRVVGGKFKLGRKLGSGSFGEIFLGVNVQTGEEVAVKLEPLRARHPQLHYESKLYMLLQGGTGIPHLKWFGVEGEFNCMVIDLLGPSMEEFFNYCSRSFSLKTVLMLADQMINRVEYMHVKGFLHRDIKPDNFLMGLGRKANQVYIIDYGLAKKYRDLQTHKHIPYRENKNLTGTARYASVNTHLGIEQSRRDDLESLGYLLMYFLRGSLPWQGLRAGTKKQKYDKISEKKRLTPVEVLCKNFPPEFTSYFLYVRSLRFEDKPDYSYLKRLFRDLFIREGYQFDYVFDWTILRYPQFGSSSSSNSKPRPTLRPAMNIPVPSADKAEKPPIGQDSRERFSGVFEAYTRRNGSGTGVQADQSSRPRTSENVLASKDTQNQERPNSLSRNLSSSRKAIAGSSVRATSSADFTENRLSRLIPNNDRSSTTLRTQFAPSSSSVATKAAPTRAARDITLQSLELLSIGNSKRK

With C#CCn1c2c(c(Br)c1-c1ccncc1)C(=O)NCC2.Cl [AMI‐331] the “Spectra (PSMs) AMI‐329 beads bound” value (CKL13 (AT1G04440); competitor AMI‐331 5 µM) was 0 PSMs, the “Spectra (PSMs) AMI‐329 beads bound” value (CKL13 (AT1G04440); competitor AMI‐331 50 µM) was 0 PSMs and the “Spectra (PSMs) AMI‐329 beads bound” value (Kinase AT4G34500; competitor AMI‐331 5 µM) was 0 PSMs. For the same compound, the “Spectra (PSMs) AMI‐329 beads bound” value (Kinase AT4G34500; competitor AMI‐331 50 µM) was 0 PSMs, the “Spectra on AMI‐329 beads relative to 0 µM sample” value (MPK family; 5 µM AMI‐331 as competitor) was 13%–85% and the “Spectra on AMI‐329 beads relative to 0 µM sample” value (MPK family; 50 µM AMI‐331 as competitor) was 0%–31%. The “Spectra (PSMs) AMI‐329 beads bound” value (CKL11 (AT4G14340); competitor AMI‐331 5 µM) was 1 PSMs, the “Spectra (PSMs) AMI‐329 beads bound” value (CKL11 (AT4G14340); competitor AMI‐331 50 µM) was 0 PSMs and the “Target status from enrichment in 0 µM versus 5 or 50 µM samples” value (CPK family) was “not a target”. The “Spectra (PSMs) AMI‐329 beads bound” value (CKL2 (AT1G72710); competitor AMI‐331 5 µM) was 1 PSMs, the “Spectra (PSMs) AMI‐329 beads bound” value (CKL2 (AT1G72710); competitor AMI‐331 50 µM) was 0 PSMs and the “Spectra on AMI‐329 beads compared to the control sample without competitor” value ([1]; 5 µM AMI‐331 as competitor) was 0% to 7%. For the same compound, the “Spectra on AMI‐329 beads” value ([1]; 50 µM AMI‐331 as competitor) was “absent”, the PRR7 transcript abundance (PRR7; 1 µM) was “significantly decreased” and the PRR7 transcript abundance (PRR7; 5 and 25 µM) was “decreased”.

From paper PMC6747015, “Structure–function study of a novel inhibitor of the casein kinase 1 family in Arabidopsis thaliana” (Plant Direct, 2019)
